Test results as given in patent US20160083420A1, “DERIVATIVES OF DOLASTATIN 10 AND AURISTATINS” (PIERRE FABRE MEDICAMENT, priority 2013, published 2016).
Square brackets hold non-standard residues; d marks the D form. Peptide text beside a SMILES is read from it. * marks the point of attachment. Dolaproine = CO[C@@H]([C@@H]1CCCN1)[C@@H](C)C(=O)O; Dil = CC[C@H](C)[C@H](NC)[C@@H](CC(=O)O)OC; X5 = CC(C)[C@@H](C(=O)*)N(C)Cc1ccncc1

Test system: MDA-MB-231 (breast adenocarcinoma—ATCC HTB-26)
Test: ATPlite antiproliferative assay on MDA-MB-231 cells
Type: cell-based
Details: Homo sapiens, MDA-MB-231, 72 h, MDA-MB-231, 72 h drug treatment, values in text, read-out: EC50, antiproliferative activity on the MDA-MB-231 cell line
Protocol: A549 (Non Small Cell Lung Cancer—ATCC CCL-185) and MDA-MB-231 (breast adenocarcinoma—ATCC HTB-26) cells were cultured in Minimum Essential Medium Eagle (MEM) with 5% fetal calf serum (FCS) and Dulbecco's modified Eagle Medium (DMEM) with 10% FCS respectively. MCF7 (breast ductal carcinoma—ATCC HTB-22) and SN-12C (kidney carcinoma—ATCC) cells were maintained in RPMI1640 medium (without phenol red for MCF7 cells) containing 10% FCS. All the media were supplemented with fungizone (1.25 μg/mL) and penicillin-streptomycin (100 U/100 μg/mL). Cells were cultured under standard conditions in an incubator at 37° C., 5% CO2 and 95% atmospheric humidity.
Compounds according to the invention were investigated for their antiproliferative activity using an ATPlite proliferation assay (Perkin Elmer, Villebon sur Yvette, France) on a comprehensive panel of 4 cell lines. […] On day 4, cell viability was evaluated by dosing the ATP released by viable cells. The number of viable cells was analyzed in comparison with the number of solvent treated cells. The EC50 values were determined with curve fitting analysis (non linear regression model with a sigmoidal dose response, variable hill slope coefficient), performed with the algorithm provided by the GraphPad Software (GraphPad Software Inc., CA, USA).

## CC[C@H](C)[C@@H]([C@@H](CC(=O)N1CCC[C@H]1[C@H](OC)[C@@H](C)C(=O)N[C@@H](Cc1ccccc1)C(=O)OC)OC)N(C)C(=O)[C@@H](NC(=O)[C@H](C(C)C)N(C)Cc1ccncc1)C(C)C [Example 3] (X5-V[Dil][Dolaproine]F-OMe)
  EC50: 410 pM
